Laboratory results from ChEMBL document CHEMBL2390830 (Eur J Med Chem, 2013).
Calls of active or inactive are those of the source. No cut-off for these calls is given here.

Assays:
[1] = Cmax in CD1 mouse at 10 mg/kg, po; assay type: ADME, organism-based; design: dose 10 mg/kg, route oral; details: in vivo
[2] = molecular target: T1, 5-hydroxytryptamine receptor 1A (Homo sapiens) (UniProt P08908); experiment: Agonist activity at human 5-HT1A receptor transfected in CHO cells assessed as inhibition of forskolin-induced cAMP accumulation at 100 nM relative to control; assay type: functional, cell-based
T1 sequence (whole entry): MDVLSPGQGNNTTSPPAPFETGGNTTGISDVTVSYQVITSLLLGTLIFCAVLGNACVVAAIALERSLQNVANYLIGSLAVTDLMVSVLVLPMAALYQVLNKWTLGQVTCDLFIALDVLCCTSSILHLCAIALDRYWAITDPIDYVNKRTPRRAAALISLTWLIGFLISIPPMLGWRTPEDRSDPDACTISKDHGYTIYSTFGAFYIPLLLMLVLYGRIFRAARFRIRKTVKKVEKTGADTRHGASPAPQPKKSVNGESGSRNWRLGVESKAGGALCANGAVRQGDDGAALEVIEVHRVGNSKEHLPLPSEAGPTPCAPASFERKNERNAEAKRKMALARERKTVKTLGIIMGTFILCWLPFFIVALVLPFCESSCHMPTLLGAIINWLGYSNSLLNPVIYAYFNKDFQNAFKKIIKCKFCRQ

[3] = Apparent volume of distribution in CD1 mouse at 2 mg/kg, iv; assay type: ADME, organism-based; design: dose 2 mg/kg, route intravenous; details: in vivo, read-out: Vz
Mus musculus [4] = experiment: Toxicity in CD1 mouse assessed as effect on autonomic system up to 80 mg/kg, po measured for 24 hrs by Irwin test; assay type: organism-based; design: dose 80 mg/kg, route oral; details: in vivo
Mus musculus [5] = experiment: Toxicity in CD1 mouse assessed as effect on central activity up to 80 mg/kg, po measured for 24 hrs by Irwin test; assay type: organism-based; design: dose 80 mg/kg, route oral; details: in vivo
[6] = molecular target: T2, 5-hydroxytryptamine receptor 2B (Homo sapiens, UniProt P41595); experiment: Inhibition of human 5-HT2B receptor at 100 nM relative to control
T2 sequence (P41595 whole entry): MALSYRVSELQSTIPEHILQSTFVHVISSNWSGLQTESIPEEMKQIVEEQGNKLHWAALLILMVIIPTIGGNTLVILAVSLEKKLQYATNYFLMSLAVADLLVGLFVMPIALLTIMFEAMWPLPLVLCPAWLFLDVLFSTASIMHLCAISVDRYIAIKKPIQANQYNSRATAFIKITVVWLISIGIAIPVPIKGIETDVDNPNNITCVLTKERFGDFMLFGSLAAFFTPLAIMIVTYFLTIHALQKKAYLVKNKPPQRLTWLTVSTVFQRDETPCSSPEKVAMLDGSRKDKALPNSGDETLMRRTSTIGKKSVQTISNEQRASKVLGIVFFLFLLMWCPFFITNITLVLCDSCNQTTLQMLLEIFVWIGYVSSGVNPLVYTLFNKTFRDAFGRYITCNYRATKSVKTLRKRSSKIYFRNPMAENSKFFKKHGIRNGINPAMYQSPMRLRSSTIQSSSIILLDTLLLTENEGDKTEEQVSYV

[7] = molecular target: T3, 5-hydroxytryptamine receptor 7 (Homo sapiens, UniProt P34969); experiment: Inhibition of human 5-HT7 receptor at 100 nM relative to control
T3 sequence (P34969 whole entry): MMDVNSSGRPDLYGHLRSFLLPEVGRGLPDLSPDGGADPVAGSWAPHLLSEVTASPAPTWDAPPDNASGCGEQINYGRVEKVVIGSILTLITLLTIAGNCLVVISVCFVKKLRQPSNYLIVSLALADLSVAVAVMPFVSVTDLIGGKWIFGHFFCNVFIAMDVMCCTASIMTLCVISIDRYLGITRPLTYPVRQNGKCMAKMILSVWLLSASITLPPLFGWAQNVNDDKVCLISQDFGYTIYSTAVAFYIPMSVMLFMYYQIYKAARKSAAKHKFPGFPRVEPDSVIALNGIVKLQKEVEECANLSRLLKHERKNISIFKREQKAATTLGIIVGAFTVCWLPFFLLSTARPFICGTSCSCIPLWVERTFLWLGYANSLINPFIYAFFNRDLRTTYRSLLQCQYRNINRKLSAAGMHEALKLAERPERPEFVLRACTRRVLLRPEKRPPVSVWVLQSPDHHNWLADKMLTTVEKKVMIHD

[8] = Half life in CD1 mouse at 2 mg/kg, iv; assay type: ADME, organism-based; design: dose 2 mg/kg, route intravenous; details: in vivo
[9] = AUC (0 to t) in CD1 mouse at 2 mg/kg, iv; assay type: ADME, organism-based; design: dose 2 mg/kg, route intravenous; details: plasma
D(3) dopamine receptor [10] = molecular target: T4, D(3) dopamine receptor (Homo sapiens, UniProt P35462); experiment: Inhibition of human dopamine D3 receptor at 10 nM relative to control
T4 sequence (P35462 whole entry): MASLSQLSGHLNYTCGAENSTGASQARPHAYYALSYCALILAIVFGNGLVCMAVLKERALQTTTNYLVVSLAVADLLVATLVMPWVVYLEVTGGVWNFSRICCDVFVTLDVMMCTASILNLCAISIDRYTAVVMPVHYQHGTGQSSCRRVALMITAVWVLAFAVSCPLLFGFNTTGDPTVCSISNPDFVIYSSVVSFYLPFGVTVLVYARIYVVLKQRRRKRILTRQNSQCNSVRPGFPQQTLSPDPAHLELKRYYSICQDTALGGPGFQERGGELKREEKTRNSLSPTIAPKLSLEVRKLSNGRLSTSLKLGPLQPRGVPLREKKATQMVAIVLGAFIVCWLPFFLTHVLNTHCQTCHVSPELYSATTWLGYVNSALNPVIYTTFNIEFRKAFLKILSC

[11] = molecular target: T5, 5-hydroxytryptamine receptor 1A (Rattus norvegicus, UniProt P19327); experiment: Displacement of [3H]8-OH-DPAT from 5-HT1A receptor in Wistar rat cerebral hippocampus membrane after 10 mins; assay type: tissue-based; details: read-out: Ki(app)
T5 sequence (P19327 whole entry): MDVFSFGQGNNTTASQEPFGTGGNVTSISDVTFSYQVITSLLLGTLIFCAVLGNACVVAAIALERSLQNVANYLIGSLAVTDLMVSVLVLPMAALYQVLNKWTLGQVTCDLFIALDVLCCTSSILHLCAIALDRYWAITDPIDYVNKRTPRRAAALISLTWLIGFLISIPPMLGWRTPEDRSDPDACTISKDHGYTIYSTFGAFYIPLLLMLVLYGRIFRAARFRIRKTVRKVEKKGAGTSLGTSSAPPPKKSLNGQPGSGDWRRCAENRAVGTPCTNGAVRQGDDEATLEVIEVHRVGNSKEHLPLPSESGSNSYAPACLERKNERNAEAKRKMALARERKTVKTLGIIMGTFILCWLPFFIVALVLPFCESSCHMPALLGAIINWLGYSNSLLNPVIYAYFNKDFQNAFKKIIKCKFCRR

[12] = Half life in CD1 mouse at 10 mg/kg, po; assay type: ADME, organism-based; design: dose 10 mg/kg, route oral; details: in vivo
[13] = molecular target: T6, D(4) dopamine receptor (Homo sapiens) (UniProt P21917); experiment: Inhibition of dopamine D4 receptor (unknown origin) at 100 nM relative to control
T6 sequence (whole entry): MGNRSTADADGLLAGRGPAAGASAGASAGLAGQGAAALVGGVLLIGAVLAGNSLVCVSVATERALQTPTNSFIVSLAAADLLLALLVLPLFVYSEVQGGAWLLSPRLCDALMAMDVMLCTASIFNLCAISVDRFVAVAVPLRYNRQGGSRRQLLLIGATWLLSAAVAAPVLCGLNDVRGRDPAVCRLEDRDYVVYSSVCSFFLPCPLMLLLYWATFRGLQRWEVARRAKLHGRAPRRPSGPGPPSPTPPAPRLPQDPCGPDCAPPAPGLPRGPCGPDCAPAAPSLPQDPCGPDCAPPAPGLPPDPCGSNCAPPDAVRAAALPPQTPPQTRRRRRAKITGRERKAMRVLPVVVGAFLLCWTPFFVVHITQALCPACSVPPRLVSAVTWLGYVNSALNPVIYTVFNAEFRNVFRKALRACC

[14] = molecular target: T1, 5-hydroxytryptamine receptor 1A (Homo sapiens); experiment: Antagonist activity at human 5-HT1A receptor transfected in CHO cells assessed as reversal of 8-OH-DPAT-induced cAMP reduction; assay type: functional, cell-based
[15] = molecular target: T3, 5-hydroxytryptamine receptor 7; experiment: Inhibition of human 5-HT7 receptor at 10 nM relative to control
[16] = Oral bioavailability in CD1 mouse at 10 mg/kg; assay type: ADME, organism-based; details: in vivo
[17] = molecular target: T2, 5-hydroxytryptamine receptor 2B; experiment: Inhibition of human 5-HT2B receptor at 10 nM relative to control
D(3) dopamine receptor [18] = molecular target: T4, D(3) dopamine receptor; experiment: Inhibition of human dopamine D3 receptor at 100 nM relative to control
Mus musculus [19] = experiment: Toxicity in CD1 mouse assessed as effect on neuromotor tonus up to 80 mg/kg, po measured for 24 hrs by Irwin test; assay type: organism-based; design: dose 80 mg/kg, route oral; details: in vivo
[20] = AUC (0 to t) in CD1 mouse at 10 mg/kg, po; assay type: ADME, organism-based; design: dose 10 mg/kg, route oral; details: plasma
[21] = molecular target: T2, 5-hydroxytryptamine receptor 2B; experiment: Inhibition of human 5-HT2B receptor
[22] = Clearance in CD1 mouse at 2 mg/kg, iv; assay type: ADME, organism-based; design: dose 2 mg/kg, route intravenous; details: in vivo
[23] = Tmax in CD1 mouse at 10 mg/kg, po; assay type: ADME, organism-based; design: dose 10 mg/kg, route oral; details: in vivo
D(2) dopamine receptor [24] = molecular target: T7, D(2) dopamine receptor (Homo sapiens, UniProt P14416); details: HEK293, 100 nM
T7 sequence (P14416 whole entry): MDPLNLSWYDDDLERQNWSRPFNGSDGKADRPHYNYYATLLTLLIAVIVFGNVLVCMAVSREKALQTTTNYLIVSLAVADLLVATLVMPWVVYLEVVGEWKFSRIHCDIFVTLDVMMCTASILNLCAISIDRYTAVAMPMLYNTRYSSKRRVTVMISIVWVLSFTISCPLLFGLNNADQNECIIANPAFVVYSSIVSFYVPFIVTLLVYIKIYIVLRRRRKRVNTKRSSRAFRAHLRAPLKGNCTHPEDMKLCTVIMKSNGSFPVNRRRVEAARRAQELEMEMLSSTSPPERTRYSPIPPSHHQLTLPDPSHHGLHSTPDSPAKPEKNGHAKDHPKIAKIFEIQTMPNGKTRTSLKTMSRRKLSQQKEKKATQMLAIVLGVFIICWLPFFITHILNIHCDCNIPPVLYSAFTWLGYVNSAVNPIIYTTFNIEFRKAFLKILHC

[25] = molecular target: T3, 5-hydroxytryptamine receptor 7; experiment: Inhibition of human 5-HT7 receptor
Mus musculus [26] = experiment: Toxicity in CD1 mouse assessed as effect on central reactivity up to 80 mg/kg, po measured for 24 hrs by Irwin test; assay type: organism-based; design: dose 80 mg/kg, route oral; details: in vivo
[27] = AUCinfinity in CD1 mouse at 10 mg/kg, po; assay type: ADME, organism-based; design: time infinity, dose 10 mg/kg, route oral; details: plasma
[28] = molecular target: T6, D(4) dopamine receptor (Homo sapiens); experiment: Inhibition of dopamine D4 receptor (unknown origin) at 10 nM relative to control
D(4) dopamine receptor = molecular target: T8, D(4) dopamine receptor (Homo sapiens, UniProt P21917); experiment: Inhibition of dopamine D4 receptor (unknown origin)
T8 sequence (P21917 whole entry): T6 sequence (whole entry)

Mus musculus [29] = experiment: Toxicity in CD1 mouse assessed as effect on neurovegetative reflexes up to 80 mg/kg, po measured for 24 hrs by Irwin test; assay type: organism-based; design: dose 80 mg/kg, route oral; details: in vivo
[30] = AUCinfinity in CD1 mouse at 2 mg/kg, iv; assay type: ADME, organism-based; design: time infinity, dose 2 mg/kg, route intravenous; details: plasma
D(2) dopamine receptor [31] = molecular target: T7, D(2) dopamine receptor; experiment: Inhibition of human recombinant dopamine D2S receptor expressed in HEK293 cells; assay type: cell-based
D(3) dopamine receptor [32] = molecular target: T4, D(3) dopamine receptor; experiment: Inhibition of human dopamine D3 receptor
[33] = molecular target: T2, 5-hydroxytryptamine receptor 2B; experiment: Binding affinity to human 5-HT2B receptor by radioligand displacement assay
D(2) dopamine receptor [34] = molecular target: T7, D(2) dopamine receptor; details: HEK293, 10 nM

`COc1ccccc1N1CCN(CCCCCN2Cc3c(Cl)nc4ccccc4c3C2=O)CC1` showed a Cmax [1] of 35 ng/mL, an inhibition [2] of 60% and a Vd [3] of 58.7 L/kg. The Activity (Mus musculus [4]) was “Non-toxic”, the Activity (Mus musculus [5]) was “Non-toxic” and the inhibition [6] was 65%. For the same molecule, the inhibition [7] was 42%, the half-life [8] was 1.5 h and the AUC(0-t) [9] was 70 ng·h/mL. For the same molecule, the inhibition (D(3) dopamine receptor [10]) was 38%, the Ki [11] was 1.7 nM and the half-life [12] was 4.5 h. For the same molecule, the inhibition [13] was 28%, the Activity [14] was “inactive” and the inhibition [15] was 24%. The bioavailability [16] was 45%, the inhibition [17] was 18% and the inhibition (D(3) dopamine receptor [18]) was 74%. For the same molecule, the Activity (Mus musculus [19]) was “Non-toxic”, the AUC(0-t) [20] was 157 ng·h/mL and the IC50 [21] was 63 nM. For the same molecule, the clearance [22] was 440 mL/min/kg, the Tmax [23] was 1 h and the inhibition (D(2) dopamine receptor [24]) was 26%. For the same molecule, the IC50 [25] was over 100 nM, the Activity (Mus musculus [26]) was “Non-toxic” and the AUC(0-inf) [27] was 239 ng·h/mL. For the same molecule, the inhibition [28] was 10%, the IC50 (D(4) dopamine receptor) was over 100 nM and the Activity (Mus musculus [29]) was “Non-toxic”. For the same molecule, the AUC(0-inf) [30] was 76 ng·h/mL, the IC50 (D(2) dopamine receptor [31]) was over 100 nM and the IC50 (D(3) dopamine receptor [32]) was 31 nM.
`COc1cc(CC(C)N)c(OC)cc1I` (racemic) gave an IC50 [33] of 4 nM.
`COc1ccccc1N1CCN(CCCCCN2Cc3ccc4ccccc4c3C2=O)CC1` showed a Cmax [1] of 56 ng/mL, an inhibition [2] of 63% and a Vd [3] of 17.6 L/kg. For the same molecule, the Activity (Mus musculus [4]) was “Non-toxic”, the Activity (Mus musculus [5]) was “Non-toxic” and the inhibition [6] was 70%. For the same molecule, the inhibition [7] was 65%, the half-life [8] was 1.3 h and the AUC(0-t) [9] was 207 ng·h/mL. The inhibition (D(2) dopamine receptor [34]) was 74%, the inhibition (D(3) dopamine receptor [10]) was 39% and the Ki [11] was 1.6 nM. For the same molecule, the half-life [12] was 4.7 h, the inhibition [13] was 60% and the Activity [14] was “inactive”. The inhibition [15] was 18%, the bioavailability [16] was 20% and the inhibition [17] was 28%. For the same molecule, the inhibition (D(3) dopamine receptor [18]) was 86%, the Activity (Mus musculus [19]) was “Non-toxic” and the AUC(0-t) [20] was 212 ng·h/mL. The IC50 [21] was 43 nM, the clearance [22] was 159 mL/min/kg and the Tmax [23] was 0.3 h. For the same molecule, the inhibition (D(2) dopamine receptor [24]) was 90%, the IC50 [25] was 62 nM and the Activity (Mus musculus [26]) was “Non-toxic”. It also gave an AUC(0-inf) [27] of 325 ng·h/mL, an inhibition [28] of 13% and an IC50 (D(4) dopamine receptor) of 65 nM. For the same molecule, the Activity (Mus musculus [29]) was “Non-toxic”, the AUC(0-inf) [30] was 210 ng·h/mL and the IC50 (D(2) dopamine receptor [31]) was 3.5 nM. The IC50 (D(3) dopamine receptor [32]) was 24 nM.
